In brackets after ≈: the same amount, converted by molar mass.
Tests used:
[1] = Apparent permeability from apical to basolateral side in MDCK cells at 2 uM by LC-MS/MS analysis; format: ADME, cell-based, Canis lupus familiaris; conditions: dog
[2] = Apparent permeability from basolateral to apical side in MDCK cells at 2 uM by LC-MS/MS analysis; format: ADME, cell-based, Canis lupus familiaris; conditions: dog
[3] = Kinetic aqueous solubility of the compound in PBS buffer at 23 degC after 24 hrs by LC/CLND analysis; format: physicochemical; conditions: read-out: Kinetic_solubility
[4] = test system: MDCK; experiment: Efflux ratio of apparent permeability from apical to basolateral side over basolateral to apical side in MDCK cells at 2 uM by LC-MS/MS analysis; format: ADME, cell-based, Canis lupus familiaris; conditions: dog
[5] = Plasma protein binding in human at 5 uM after 4 hrs by equilibrium dialysis method; format: ADME, cell-free; conditions: read-out: PPB
[6] = AUC in Sprague-Dawley rat at […], po; format: ADME, organism-based; conditions: in vivo
[7] = Half life in Sprague-Dawley rat at 0.5 mg/kg, iv; format: ADME, organism-based; conditions: in vivo
[8] = Oral bioavailability in Sprague-Dawley rat at […]; format: ADME, organism-based; conditions: in vivo
[9] = Plasma clearance in Sprague-Dawley rat at 0.5 mg/kg, iv; format: ADME, organism-based
[10] = Cmax in Sprague-Dawley rat at […], po; format: ADME, organism-based; parameters: dose 1.5 mg/kg, route oral; conditions: in vivo
[11] = Volume of distribution in Sprague-Dawley rat at 0.5 mg/kg, iv; format: ADME, organism-based; conditions: in vivo

Structure (SMILES)	Papp A→B at 2 µM [1] [×10⁻⁶ cm/s]	Papp B→A at 2 µM [2] [×10⁻⁶ cm/s]	solubility kinetic at 24 h [3] [µM]	Ratio [4]	fraction unbound at 4 h, 5 µM [5]	AUC [6] [µM·h]	half-life [7] [min]	bioavailability [8] [%]	clearance [9] [mL/min/kg]	Cmax [10] [nM]	Vd [11] [L/kg]
O=C(O)c1ccc(-c2nc(C(=O)c3c(Cl)cccc3C3CC3)n3cccnc23)cc1O	8	15	45 (≈ 19.5 µg/mL)	< 2	0.01						
O=C(O)c1ccc(-c2nc(C(=O)c3c(Cl)cccc3C(F)(F)F)n3ccccc23)cc1O	12	10	86 (≈ 39.6 µg/mL)	< 2	< 0.01	0.25	12	40	130	70	1.2
